# Laboratory results taken from ChEMBL document CHEMBL1121635 (J Med Chem, 1980).
# Tests used:
# [1] = target: T1, Adrenergic receptor alpha-1 (Rattus norvegicus, UniProt P15823+P23944+P43140)
# T1 sequence (P15823 whole entry): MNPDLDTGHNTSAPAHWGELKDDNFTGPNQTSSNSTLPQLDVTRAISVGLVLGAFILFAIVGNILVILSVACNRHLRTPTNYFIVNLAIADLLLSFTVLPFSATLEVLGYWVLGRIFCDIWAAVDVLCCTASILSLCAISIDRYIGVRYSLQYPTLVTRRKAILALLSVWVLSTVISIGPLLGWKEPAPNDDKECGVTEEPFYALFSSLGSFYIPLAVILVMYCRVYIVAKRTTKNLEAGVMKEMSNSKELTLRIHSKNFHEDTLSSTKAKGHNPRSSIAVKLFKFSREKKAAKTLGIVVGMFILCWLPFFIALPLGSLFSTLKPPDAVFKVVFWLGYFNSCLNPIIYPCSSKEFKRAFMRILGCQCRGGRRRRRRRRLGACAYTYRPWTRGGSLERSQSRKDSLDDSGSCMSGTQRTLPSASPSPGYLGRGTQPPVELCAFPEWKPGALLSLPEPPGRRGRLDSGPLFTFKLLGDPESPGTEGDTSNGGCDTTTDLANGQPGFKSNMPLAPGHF
# T1 sequence (P23944 whole entry): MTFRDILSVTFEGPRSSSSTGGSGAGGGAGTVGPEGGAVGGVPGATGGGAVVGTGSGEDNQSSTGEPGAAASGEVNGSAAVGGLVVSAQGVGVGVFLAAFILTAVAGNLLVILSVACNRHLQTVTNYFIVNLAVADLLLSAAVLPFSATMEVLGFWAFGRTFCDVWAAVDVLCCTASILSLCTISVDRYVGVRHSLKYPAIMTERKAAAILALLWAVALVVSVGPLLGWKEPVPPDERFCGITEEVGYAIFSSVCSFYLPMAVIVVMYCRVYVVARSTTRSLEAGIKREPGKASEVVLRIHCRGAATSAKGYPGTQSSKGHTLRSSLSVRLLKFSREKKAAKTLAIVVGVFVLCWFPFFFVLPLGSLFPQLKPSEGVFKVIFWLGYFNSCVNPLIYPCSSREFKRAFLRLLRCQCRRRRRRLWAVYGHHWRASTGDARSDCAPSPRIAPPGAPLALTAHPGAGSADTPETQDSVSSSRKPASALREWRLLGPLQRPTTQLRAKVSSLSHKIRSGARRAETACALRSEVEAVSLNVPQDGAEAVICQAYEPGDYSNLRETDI
# T1 sequence (P43140 whole entry): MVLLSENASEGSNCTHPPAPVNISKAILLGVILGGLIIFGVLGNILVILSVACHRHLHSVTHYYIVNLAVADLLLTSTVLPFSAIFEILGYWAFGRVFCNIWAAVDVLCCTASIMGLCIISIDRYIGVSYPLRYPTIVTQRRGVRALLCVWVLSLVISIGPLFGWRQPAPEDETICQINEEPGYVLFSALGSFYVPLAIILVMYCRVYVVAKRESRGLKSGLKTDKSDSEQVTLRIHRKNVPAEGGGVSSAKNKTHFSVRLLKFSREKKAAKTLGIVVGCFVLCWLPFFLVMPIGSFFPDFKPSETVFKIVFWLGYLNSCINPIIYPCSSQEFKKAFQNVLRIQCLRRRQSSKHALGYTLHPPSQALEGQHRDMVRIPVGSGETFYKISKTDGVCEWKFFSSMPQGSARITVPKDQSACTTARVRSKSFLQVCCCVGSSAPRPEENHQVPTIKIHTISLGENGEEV
# Description: Concentration of compound for 50% displacement of [3H]WB-4101 from Alpha-1 adrenergic receptor of rat brain
# Rattus norvegicus [2] = species on record: Rattus norvegicus
# Description: (§1) Concentration of compound to inhibit 50% of [3H]-5-HT neurotransmitter uptake in rat brain
# Rattus norvegicus [3] = species on record: Rattus norvegicus; remark: listed apart in the source
# Description: (§2) Concentration of compound to inhibit 50% of [3H]norepinephrine neurotransmitter uptake in rat brain
# [4] = target: Muscarinic acetylcholine receptor
# Description: Concentration of compound for 50% displacement of [3H]QNB from Muscarinic acetylcholine receptor in rat brain
# Rattus norvegicus [5] = species on record: Rattus norvegicus; assay: cells; conditions: Brain, 3 h
# Description: as §1
# Rattus norvegicus [6] = species on record: Rattus norvegicus; assay: cells; conditions: Brain, 3 h; remark: listed apart in the source
# Description: as §2
# Dopamine receptor = assay: Concentration of compound for 50% displacement of [3H]spiperone from Dopamine receptor in rat brain; type: tissue-based
IC50 [1] [µM],IC50 (Rattus norvegicus [2]) [µM],IC50 (Rattus norvegicus [3]) [µM],IC50 [4] [µM],IC50 (Rattus norvegicus [5]) [µM],IC50 (Rattus norvegicus [6]) [µM],IC50 (Dopamine receptor) [µM],Structure (SMILES)
1.76,14.2,1.25,0.449,,,,CN1CCC2c3cccc4c3N(CC2C1)c1ccccc1CC4 (trans isomer)
0.445,,3.54,2.24,19.6,,,CN1CCC2c3cccc4c3N(CC2C1)c1ccccc1CC4 (stereo in doubt)
,,,0.269,0.384,0.169,0.645,CN(C)CCCN1c2ccccc2CCc2ccccc21 [IMIPRAMINE]
